For series [1] the following is noted: reported for 1a at 10 mg/kg, oral; cited from earlier work.
Series [2] can be described thus: Pharmacokinetic studies in mice. Format: in vivo, female CD-1 mice. The conditions noted are these: i.p. exposure corrected for PPB.
Series [3] has as its system patient-derived HGSOC tumor spheroids. Kind of series: Patient derived spheroid assay with Taxol. In kind it is cell-based.

Molecules are shown by their SMILES.

On to `CS(=O)(=O)N1CCN(C(=O)c2cnc3ccc(F)cc3c2-c2ccc(C3(C#N)CC3)cc2)CC1` [Compound 1a], for which the “AUC0-∞” value in series [1] is 14.6 µM·h. Regarding `CC(Sc1nc2nn(C3COC3)cc2c(=O)n1-c1ccccc1)c1ccccc1` (centres unmarked) [Compound 68, 2-(oxetan-3-yl)-5-phenyl-6-((1-phenylethyl)thio)-2H-pyrazolo[3,4-d]pyrimidin-4(5H)-one], the “unbound drug AUC0-7h obs” value in series [2] was 0.6 µM·h. `CC(Sc1nc2nn(C3COC3)cc2c(=O)n1-c1ccccc1)c1ccccn1` (centres unmarked) [Compound 69, 2-(oxetan-3-yl)-5-phenyl-6-((1-(pyridin-2-yl)ethyl)thio)-2H-pyrazolo[3,4-d]pyrimidin-4(5H)-one]: the “unbound drug AUC0-7h obs” value in series [2] came to 1.1 µM·h. The single agent toxicity result in series [3] is reported as “no single agent toxicity”. For `CC(Sc1nc2nn(C3(C)COC3)cc2c(=O)n1-c1ccccc1)c1ccccc1` (centres unmarked) [Compound 74, 2-(3-methyloxetan-3-yl)-5-phenyl-6-((1-phenylethyl)thio)-2H-pyrazolo[3,4-d]pyrimidin-4(5H)-one], the “unbound drug AUC0-7h obs” value in series [2] amounted to 0.5 µM·h.

The values are drawn from paper PMC7855449 (European journal of medicinal chemistry, 2020).
